From US7932262B2 (Novartis AG, priority 2006, dated 2011)

Tests used:
[1] = molecular target: T1, PDK1 kinase (Homo sapiens, UniProt O15530); experiment: PDK1 Kinase Alpha Screen Assay; assay type: biochemical; conditions: PDK1 Kinase Alpha Screen Assay; read-out: PDK1 IC50
T1 sequence (O15530 1-556): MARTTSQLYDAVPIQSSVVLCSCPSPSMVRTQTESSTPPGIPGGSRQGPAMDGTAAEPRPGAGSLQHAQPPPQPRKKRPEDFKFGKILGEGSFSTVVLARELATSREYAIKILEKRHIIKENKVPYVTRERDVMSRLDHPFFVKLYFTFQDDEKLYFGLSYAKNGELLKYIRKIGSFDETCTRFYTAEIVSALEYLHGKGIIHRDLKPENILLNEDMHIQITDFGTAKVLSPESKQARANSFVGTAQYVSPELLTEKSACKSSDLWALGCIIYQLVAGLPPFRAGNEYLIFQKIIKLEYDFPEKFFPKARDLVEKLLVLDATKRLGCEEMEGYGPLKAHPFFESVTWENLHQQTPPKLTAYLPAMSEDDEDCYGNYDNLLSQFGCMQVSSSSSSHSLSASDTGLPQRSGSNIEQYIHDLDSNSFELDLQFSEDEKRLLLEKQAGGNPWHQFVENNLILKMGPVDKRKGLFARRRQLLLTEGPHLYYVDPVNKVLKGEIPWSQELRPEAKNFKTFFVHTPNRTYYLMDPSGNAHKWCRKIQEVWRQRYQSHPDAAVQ
Outline: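 Biotinylated PDK1-4 peptide (50 nM) phosphorylated by PDK1 with 10 uM ATP in pH 7.5 Tris/MgCl2/DTT buffer, 2.5% DMSO, for 3-18 hours. EDTA stop, then AlphaScreen detection with phospho-(Ser/Thr) PKA substrate antibody and protein A/streptavidin beads after overnight room-temperature development.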

[2] = test system: PC3MM cells; experiment: Cell Proliferation Assay (Cell Titer Glo), PC3MM; assay type: cell-based; conditions: cell proliferation, PC3MM cells; read-out: CPEC50 PC3MM
Outline: (§1)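 Cells seeded at 1000/well, allowed to adhere 3-5 h, then exposed to DMSO-dissolved compounds for 3 days at 37° C., 5% CO2. Medium replaced before Cell Titer Glo addition; luminescence read after 10 min.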

[3] = test system: A2780 cells; experiment: Cell Proliferation Assay (Cell Titer Glo), A2780; assay type: cell-based; conditions: Homo sapiens; cell proliferation, A2780 cells; read-out: CPEC50 A2780
Outline: as §1

| Structure (SMILES) | IC50 [1] [µM] | EC50 [2] [µM] | EC50 [3] [µM] |
| --- | --- | --- | --- |
| NS(=O)(=O)c1ccc(Nc2ncc3cccc(C(=O)N[C@@H]4CN5CCC4CC5)c3n2)cc1 [Compound 809, (S)-N-(quinuclidin-3-yl)-2-(4-sulfamoylphenylamino)quinazoline-8-carboxamide] | < 5 | < 5 | 5 to 10 |
| O=S(=O)(NCCN1CCCC1)c1cccc(Nc2ncc3cccc(OC4CCNCC4)c3n2)c1 [Compound 811, 3-(8-(piperidin-4-yloxy)quinazolin-2-ylamino)-N-(2-(pyrrolidin-1-yl)ethyl)benzenesulfonamide] | < 5 | < 5 | 5 to 10 |
| O=S(=O)(NC1CC1)c1cccc(Nc2ncc3cccc(OC4CCNCC4)c3n2)c1 [Compound 812, N-cyclopropyl-3-(8-(piperidin-4-yloxy)quinazolin-2-ylamino)benzenesulfonamide] | < 5 | < 5 | < 5 |
| NS(=O)(=O)c1ccc(Nc2ncc3ccc(-c4ccc5cn[nH]c5c4)cc3n2)cc1 [Compound 813, 4-(7-(1H-indazol-6-yl)quinazolin-2-ylamino)benzenesulfonamide] | < 5 | < 5 | < 5 |
| COc1ncc(-c2ccc3cnc(Nc4ccc(S(N)(=O)=O)cc4)nc3c2)cn1 [Compound 814, 4-(7-(2-methoxypyrimidin-5-yl)quinazolin-2-ylamino)benzenesulfonamide] | < 5 | < 5 | < 5 |
| NS(=O)(=O)c1ccc(Nc2ncc3ccc(Nc4ccc5cn[nH]c5c4)cc3n2)cc1 [Compound 815, 4-(7-(1H-indazol-6-ylamino)quinazolin-2-ylamino)benzenesulfonamide] | < 5 | < 5 | < 5 |
| CCN1CCC(Oc2cccc3cnc(Nc4ccc(S(N)(=O)=O)cc4)nc23)CC1 [Compound 817, 4-(8-(1-ethylpiperidin-4-yloxy)quinazolin-2-ylamino)benzenesulfonamide] | < 5 | < 5 | < 5 |
| CC(C)N1CC(Oc2cccc3cnc(Nc4ccc(S(N)(=O)=O)cc4)nc23)C1 [Compound 818, 4-(8-(1-isopropylazetidin-3-yloxy)quinazolin-2-ylamino)benzenesulfonamide] | < 5 | < 5 | < 5 |
| NS(=O)(=O)c1ccc(Nc2ncc3cccc(OC4CNC4)c3n2)cc1 [Compound 819, 4-(8-(azetidin-3-yloxy)quinazolin-2-ylamino)benzenesulfonamide] | < 5 | < 5 | 5 to 10 |
| NS(=O)(=O)c1ccc(Nc2ncc3ccc(C(=O)N4CCCC4)cc3n2)cc1 [Compound 820, 4-(7-(pyrrolidine-1-carbonyl)quinazolin-2-ylamino)benzenesulfonamide] | < 5 | < 5 | < 5 |
| Nc1ccc(-c2cccc3cnc(Nc4ccc(S(N)(=O)=O)cc4)nc23)cn1 [Compound 821, 4-(8-(6-aminopyridin-3-yl)quinazolin-2-ylamino)benzenesulfonamide] | < 5 | < 5 | < 5 |
| CN1CCN(C(=O)c2cccc(-c3cccc4cnc(Nc5ccc(S(N)(=O)=O)cc5)nc34)c2)CC1 [Compound 822, 4-(8-(3-(4-methylpiperazine-1-carbonyl)phenyl)quinazolin-2-ylamino)benzenesulfonamide] | < 5 | < 5 | < 5 |
| Nc1ncc(-c2cccc3cnc(Nc4ccc(S(N)(=O)=O)cc4)nc23)cn1 [Compound 823, 4-(8-(2-aminopyrimidin-5-yl)quinazolin-2-ylamino)benzenesulfonamide] | < 5 | < 5 | < 5 |
| CN1CCN(C(=O)c2ccc(-c3cccc4cnc(Nc5ccc(S(N)(=O)=O)cc5)nc34)cc2)CC1 [Compound 824, 4-(8-(4-(4-methylpiperazine-1-carbonyl)phenyl)quinazolin-2-ylamino)benzenesulfonamide] | < 5 | < 5 | < 5 |
| NS(=O)(=O)c1ccc(Nc2ncc3cccc(-c4ccc(N5CCOCC5)nc4)c3n2)cc1 [Compound 826, 4-(8-(6-morpholinopyridin-3-yl)quinazolin-2-ylamino)benzenesulfonamide] | < 5 | < 5 | < 5 |
| NS(=O)(=O)c1ccc(Nc2ncc3cccc(-c4ccc(N5CCNC(=O)C5)nc4)c3n2)cc1 [Compound 828, 4-(8-(6-(3-oxopiperazin-1-yl)pyridin-3-yl)quinazolin-2-ylamino)benzenesulfonamide] | < 5 | < 5 | < 5 |
| CC(=O)NCCNc1ccc(-c2cccc3cnc(Nc4ccc(S(N)(=O)=O)cc4)nc23)cn1 [Compound 829, N-(2-(5-(2-(4-sulfamoylphenylamino)quinazolin-8-yl)pyridin-2-ylamino)ethyl)acetamide] | < 5 | < 5 | < 5 |
| CC(C)Nc1ccc(-c2cccc3cnc(Nc4ccc(S(N)(=O)=O)cc4)nc23)cn1 [Compound 831, 4-(8-(6-(isopropylamino)pyridin-3-yl)quinazolin-2-ylamino)benzenesulfonamide] | < 5 | < 5 | < 5 |
| NS(=O)(=O)c1ccc(Nc2ncc3cccc(-c4ccc(N5CCCC5)nc4)c3n2)cc1 [Compound 832, 4-(8-(6-(pyrrolidin-1-yl)pyridin-3-yl)quinazolin-2-ylamino)benzenesulfonamide] | < 5 | < 5 | < 5 |
| NS(=O)(=O)c1ccc(Nc2ncc3cccc(-c4cc[nH]c(=O)c4)c3n2)cc1 [Compound 833, 4-(8-(2-oxo-1,2-dihydropyridin-4-yl)quinazolin-2-ylamino)benzenesulfonamide] | < 5 | < 5 | 5 to 10 |
| NS(=O)(=O)c1ccc(Nc2ncc3cccc(-c4ccc(N5CCS(=O)(=O)CC5)nc4)c3n2)cc1 [Compound 834] | < 5 | < 5 | < 5 |
| CC(C)CN1CC(Oc2cccc3cnc(Nc4ccc(S(N)(=O)=O)cc4)nc23)C1 [Compound 835, 4-(8-(1-isobutylazetidin-3-yloxy)quinazolin-2-ylamino)benzenesulfonamide] | < 5 | < 5 | < 5 |
| NS(=O)(=O)c1ccc(Nc2ncc3ccc(-c4ccc(F)nc4F)cc3n2)cc1 [Compound 836, 4-(7-(2,6-difluoropyridin-3-yl)quinazolin-2-ylamino)benzenesulfonamide] | < 5 | < 5 | < 5 |
| NS(=O)(=O)c1ccc(Nc2ncc3ccc(-c4ccc(F)nc4)cc3n2)cc1 [Compound 837, 4-(7-(6-fluoropyridin-3-yl)quinazolin-2-ylamino)benzenesulfonamide] | < 5 | < 5 | < 5 |
| Cc1ccc(Cl)cc1NC(=O)c1ccc2cnc(Nc3ccc(S(N)(=O)=O)cc3)nc2c1 [Compound 838, N-(5-chloro-2-metlhylphenyl)-2-(4-sulfamoylphenylamino)quinazoline-7-carboxamide] | < 5 | < 5 | < 5 |
